Patent publication US11384078B2, “5,6-fused-bicyclic compounds and compositions for the treatment of parasitic diseases” (NOVARTIS AG, priority 2017, dated 2022)

Key:
Assay type in all cases: cell-based
[1] = tested on: Leishmania donovani axenic amastigote; test: In vitro assay for growth inhibition of Leishmania donovani axenic amastigote (Cell TiterGlo luminescence); details: Leishmania donovani, L. donovani axenic amastigotes in vitro; read-out: L. donovani amastigotes EC50
Outline: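 Compound-treated wells received 9600 axenic amastigotes in RPMI 1640-based medium at pH 5.5 (37 °C, 5% CO2). Growth measured as ATP luminescence (CellTiter-Glo) after 2-day incubation; DMSO and reference compounds served as controls.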

[2] = tested on: L. donovani HU3 strain in mouse peritoneal macrophages; test: Assay for inhibition of parasitemia of Leishmania donovani in mouse macrophages (SYBR Green nuclei count, high-content imaging); details: Leishmania donovani, Peritoneal macrophage, L. donovani in mouse peritoneal macrophages; read-out: L. donovani in Mouse Macrophages EC50
Outline: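 Parasite numbers were counted from SYBR Green-stained nuclei imaged by high-content microscopy after paraformaldehyde fixation and Triton permeabilization. Before this, compound was applied for 5 days at 37° C to BALB/c peritoneal macrophages (2×10^4/well) that had been exposed 24 h to 4×10^5 L. donovani HU3 amastigotes harvested from infected mouse spleens.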

[3] = tested on: Trypanosoma cruzi amastigotes cultured in 3T3 fibroblast cells; test: Assay for growth inhibition of kinetoplastid parasite Trypanosoma cruzi (beta-galactosidase Tulahuen strain, CPRG readout); details: Trypanosoma cruzi, Fibroblast, T. cruzi amastigotes in 3T3 fibroblast cells; read-out: Buckner infectious T. cruzi EC50
Outline: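 3T3 fibroblasts (1,000 cells/well) plated overnight, treated with compound in DMSO, then infected with 10,000 Lac-Z-expressing Tulahuen trypomastigotes. After 6 days, 0.6 mM CPRG with 0.6% NP-40 added for 2 h at room temperature; absorbance gives relative intracellular amastigote numbers. Benznidazole and nifurtimox serve as positive controls.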

[4] = tested on: Trypanosoma brucei brucei (Lister 427) strain; test: Assay for growth inhibition against Trypanosoma brucei brucei (Cell TiterGlo ATP luminescence); details: Trypanosoma brucei, T. brucei brucei (Lister 427); read-out: T. Brucei (HAT) EC50
Outline: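 Growth read-out is cellular ATP by CellTiter-Glo luminescence, measured 30 min after reagent addition, following 2-day incubation at 37 °C in CO2. Parasites (10,000/mL, HMI-9 plus 10% FBS and 10% serum plus) faced 10 threefold dilutions in duplicate; IC50 taken as 50% growth inhibition versus untreated.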

| SMILES | EC50 [1] [nM] | EC50 [2] [nM] | EC50 [3] [nM] | EC50 [4] [nM] |
| --- | --- | --- | --- | --- |
| O=C(Nc1ccc(F)c(-n2cc3cc(-c4ccccn4)cnc3n2)c1)c1ccco1 [Compound 64, N-{4-fluoro-3-[5-(pyridin-2-yl)-2H-pyrazolo[3,4-b]pyridin-2-yl]phenyl}furan-2-carboxamide] | 2.2 | 3.9 | 1 | < 23 |
| Cc1cnc(C(=O)Nc2ccc(F)c(-n3cc4cc(C(C)C)cnc4n3)c2)cn1 [Compound 65, N-{4-fluoro-3-[5-(propan-2-yl)-2H-pyrazolo[3,4-b]pyridin-2-yl]phenyl}-5-methylpyrazine-2-carboxamide] | 1000 | 1200 | 960 | 1400 |
| CC1CCC(C(=O)Nc2ccc(F)c(-n3cc4cc(C(C)C)cnc4n3)c2)C1 (centres unmarked) [Compound 66, N-{4-fluoro-3-[5-(propan-2-yl)-2H-pyrazolo[3,4-b]pyridin-2-yl]phenyl}-3-methylcyclopentane-1-carboxamide] | 740 | 870 | 150 | 120 |
| CC(C)c1cnc2nn(-c3cc(NC(=O)c4ccc(F)cn4)ccc3F)cc2c1 [Compound 67, 5-fluoro-N-{4-fluoro-3-[5-(propan-2-yl)-2H-pyrazolo[3,4-b]pyridin-2-yl]phenyl}pyridine-2-carboxamide] | 210 | 310 | 42 | > 50000 |
| Cc1nc(C(=O)Nc2ccc(F)c(-n3cc4cc(C(C)C)cnc4n3)c2)c(C(F)(F)F)o1 [Compound 68, N-{4-fluoro-3-[5-(propan-2-yl)-2H-pyrazolo[3,4-b]pyridin-2-yl]phenyl}-2-methyl-5-(trifluoromethyl)-1,3-oxazole-4-carboxamide] | 2200 | 2800 | 160 | 510 |
| CC(C)c1cnc2nn(-c3cc(NC(=O)CC4CC4)ccc3F)cc2c1 [Compound 69, 2-cyclopropyl-N-{4-fluoro-3-[5-(propan-2-yl)-2H-pyrazolo[3,4-b]pyridin-2-yl]phenyl}acetamide] | 170 | 150 | 68 | 40 |
| CC(C)c1cnc2nn(-c3cc(NC(=O)c4ncc(F)cc4F)ccc3F)cc2c1 [Compound 70, 3,5-difluoro-N-{4-fluoro-3-[5-(propan-2-yl)-2H-pyrazolo[3,4-b]pyridin-2-yl]phenyl}pyridine-2-carboxamide] | 140 | 100 | 22 | 38 |
| CC(C)c1cnc2nn(-c3cc(NC(=O)C4CCC(C(F)(F)F)C4)ccc3F)cc2c1 (centres unmarked) [Compound 71, N-{4-fluoro-3-[5-(propan-2-yl)-2H-pyrazolo[3,4-b]pyridin-2-yl]phenyl}-3-(trifluoromethyl)cyclopentane-1-carboxamide] | 4800 | 2800 | 1400 | 3000 |
| Cc1cc(C(=O)Nc2ccc(F)c(-n3cc4cc(C(C)C)cnc4n3)c2)c(C)o1 [Compound 72, N-{4-fluoro-3-[5-(propan-2-yl)-2H-pyrazolo[3,4-b]pyridin-2-yl]phenyl}-2,5-dimethylfuran-3-carboxamide] | 2100 | 1400 | 180 | 420 |
| Cc1ncoc1C(=O)Nc1ccc(F)c(-n2cc3cc(C(C)C)cnc3n2)c1 [Compound 73, N-{4-fluoro-3-[5-(propan-2-yl)-2H-pyrazolo[3,4-b]pyridin-2-yl]phenyl}-4-methyl-1,3-oxazole-5-carboxamide] | 100 | 220 | 57 | 37 |
| Cc1nc(C(=O)Nc2ccc(F)c(-n3cc4cc(C(C)C)cnc4n3)c2)c(C)o1 [Compound 74, N-{4-fluoro-3-[5-(propan-2-yl)-2H-pyrazolo[3,4-b]pyridin-2-yl]phenyl}-2,5-dimethyl-1,3-oxazole-4-carboxamide] | 760 | 820 | 57 | 110 |
| CC(C)c1cnc2nn(-c3cc(NC(=O)c4cnc(C5CC5)o4)ccc3F)cc2c1 [Compound 75, 2-cyclopropyl-N-{4-fluoro-3-[5-(propan-2-yl)-2H-pyrazolo[3,4-b]pyridin-2-yl]phenyl}-1,3-oxazole-5-carboxamide] | 200 | 170 | 120 | 170 |
| Cc1nc(C2CC2)oc1C(=O)Nc1ccc(F)c(-n2cc3cc(C(C)C)cnc3n2)c1 [Compound 76, 2-cyclopropyl-N-{4-fluoro-3-[5-(propan-2-yl)-2H-pyrazolo[3,4-b]pyridin-2-yl]phenyl}-4-methyl-1,3-oxazole-5-carboxamide] | 1100 | 930 | 410 | 480 |
| Cc1nc(C(F)(F)F)oc1C(=O)Nc1ccc(F)c(-n2cc3cc(C(C)C)cnc3n2)c1 [Compound 78, N{4-fluoro-3-[5-(propan-2-yl)-2H-pyrazolo[3,4-b]pyridin-2-yl]phenyl}-4-methyl-2-(trifluoromethyl)-1,3-oxazole-5-carboxamide] | 800 | 870 | 450 | 530 |
| Cc1nc(COC(C)(C)C)oc1C(=O)Nc1ccc(F)c(-n2cc3cc(C(C)C)cnc3n2)c1 [Compound 79, 2-[(tert-butoxy)methyl]-N-{4-fluoro-3-[5-(propan-2-yl)-2H-pyrazolo[3,4-b]pyridin-2-yl]phenyl}-4-methyl-1,3-oxazole-5-carboxamide] | 3000 | 2400 | 140 | 350 |
| CC(C)c1cnc2nn(-c3cc(NC(=O)C4CCCCO4)ccc3F)cc2c1 (centres unmarked) [Compound 80, N-{4-fluoro-3-[5-(propan-2-yl)-2H-pyrazolo[3,4-b]pyridin-2-yl]phenyl}oxane-2-carboxamide] | 410 | 410 | 92 | 170 |
| Cc1nc(C(=O)Nc2ccc(F)c(-n3cc4cc(C(C)C)cnc4n3)c2)oc1C [Compound 81, N-{4-fluoro-3-[5-(propan-2-yl)-2H-pyrazolo[3,4-b]pyridin-2-yl]phenyl}-4,5-dimethyl-1,3-oxazole-2-carboxamide] | 3160 | 3600 | 420 | 360 |
| CC(C)c1cnc2nn(-c3cc(NC(=O)c4ccccn4)ccc3F)cc2c1 [Compound 82, N-{4-fluoro-3-[5-(propan-2-yl)-2H-pyrazolo[3,4-b]pyridin-2-yl]phenyl}pyridine-2-carboxamide] | 470 | 310 | 59 | 54 |
| Cc1ncc(C(=O)Nc2ccc(F)c(-n3cc4cc(C(C)C)cnc4n3)c2)o1 [Compound 83, N-{4-fluoro-3-[5-(propan-2-yl)-2H-pyrazolo[3,4-b]pyridin-2-yl]phenyl}-2-methyl-1,3-oxazole-5-carboxamide] | 14 | 7 | 7.3 | < 23 |
| CC(C)c1cnc2nn(-c3cc(NC(=O)c4ccc(C#N)cn4)ccc3F)cc2c1 [Compound 84, 5-cyano-N-{4-fluoro-3-[5-(propan-2-yl)-2H-pyrazolo[3,4-b]pyridin-2-yl]phenyl}pyridine-2-carboxamide] | 2400 | 6900 | 3700 | 2030 |
